Measurements: patent US4292317A, “1,4-Dihydro-quinoline-3-carboxylic acid derivatives, process for their preparation and compositions containing them” (Laboratorie Roger Bellon, priority 1977, dated 1981)
Values after ≈ are worked out from the molar mass of the structure shown. Read-outs that look alike come from different tables or passages of the source.

What was measured:
Format in all cases: cell-based
Ps. aeruginosa A.22 = test: M.I.C. in vitro, nutrient agar dilution; settings: Pseudomonas aeruginosa, 18 h; Table 2; Ps. aeruginosa A.22 (Gram negative); read-out: M.I.C.
Method: (§1) After sterilisation at 120° C., the pH was 6.8.
(§2) The minimum inhibitory concentrations (M.I.C.) were determined by dilution of the test compounds in this mixture, the concentration ranging from 0.05 to 100 μg/cm^3 in a geometric progression with a factor of 2.
(§3) The inoculation of the dishes was carried out by means of a multiple inoculator with 10^-3 dilutions of 18 hour old broth cultures.
(§4) The dishes were placed in an oven at 37° C. and the readings were taken afer an incubation time of 18 hours. The M.I.C. was taken as the lowest concentration which inhibited a culture.

Esch. coli 54.127 O.M.S. = test: M.I.C. in vitro, nutrient agar dilution; settings: Escherichia coli, 18 h; Table 2; Esch. coli 54.127 O.M.S. (Gram negative); read-out: M.I.C.
Method: as §1, §2, §3, §4

B. subtilis = test: M.I.C. in vitro, nutrient agar dilution; settings: Bacillus subtilis, 18 h; Table 2; B. subtilis (Gram positive); read-out: M.I.C.
Method: as §1, §2, §3, §4

Pr. morganii A.236 = test: M.I.C. in vitro, nutrient agar dilution; settings: Morganella morganii, 18 h; Table 2; Pr. morganii A.236 (Gram negative); read-out: M.I.C.
Method: as §1, §2, §3, §4

Strepto D.M. 19 = test: M.I.C. in vitro, nutrient agar dilution; settings: 18 h; Table 2; Strepto D.M. 19 (Gram positive); read-out: M.I.C.
Method: as §1, §2, §3, §4

Arizona 6.211 = test: M.I.C. in vitro, nutrient agar dilution; settings: 18 h; Table 2; Arizona 6.211 (Gram negative); read-out: M.I.C.
Method: as §1, §2, §3, §4

Klebs. pneum. 10.031 = test: M.I.C. in vitro, nutrient agar dilution; settings: 18 h; Table 2; Klebs. pneum. 10.031 (Gram negative); read-out: M.I.C.
Method: as §1, §2, §3, §4

Pr. mirabilis Nig = test: M.I.C. in vitro, nutrient agar dilution; settings: Proteus mirabilis, 18 h; Table 2; Pr. mirabilis Nig (Gram negative); read-out: M.I.C.
Method: as §1, §2, §3, §4

S. enteritidis Danysz = test: M.I.C. in vitro, nutrient agar dilution; settings: Salmonella enterica, 18 h; Table 2; S. enteritidis Danysz (Gram negative); read-out: M.I.C.
Method: as §1, §2, §3, §4

S. oranienburg 1066 = test: M.I.C. in vitro, nutrient agar dilution; settings: Salmonella enterica, 18 h; Table 2; S. oranienburg 1066 (Gram negative); read-out: M.I.C.
Method: as §1, §2, §3, §4

Sh. sonnei I.P.S. = test: M.I.C. in vitro, nutrient agar dilution; settings: Shigella sonnei, 18 h
Method: as §1, §2, §3, §4

Serratia = test: M.I.C. in vitro, nutrient agar dilution; settings: 18 h, Table 2, Berratia (Gram negative), read-out: M.I.C.
Method: as §1, §2, §3, §4

Esch. coli 95 I.S.M. = test: M.I.C. in vitro, nutrient agar dilution; settings: Escherichia coli, 18 h; Table 2; Esch. coli 95 I.S.M. (Gram negative); read-out: M.I.C.
Method: as §1, §2, §3, §4

Esch. coli 111 B4 = test: M.I.C. in vitro, nutrient agar dilution; settings: Escherichia coli, 18 h; Table 2; Esch. coli 111 B4 (Gram negative)
Method: as §1, §2, §3, §4

Ps. aeruginosa 72.345 = test: M.I.C. in vitro, nutrient agar dilution; settings: Pseudomonas aeruginosa, 18 h; Table 2; Ps. aeruginosa 72.345 (Gram negative); read-out: M.I.C.
Method: as §1, §2, §3, §4

Pr. vulgaris 12-53 = test: M.I.C. in vitro, nutrient agar dilution; settings: Proteus vulgaris, 1253, 18 h; Table 2; Pr. vulgaris 12-53 (Gram negative); read-out: M.I.C.
Method: as §1, §2, §3, §4

Staph. 9.144 = test: M.I.C. in vitro, nutrient agar dilution; settings: 18 h; Table 2; Staph. 9.144 (Gram positive); read-out: M.I.C.
Method: as §1, §2, §3, §4

Staph. 209 P = test: M.I.C. in vitro, nutrient agar dilution; settings: 18 h; Table 2; Staph. 209 P (Gram positive); read-out: M.I.C.
Method: as §1, §2, §3, §4

Providentia 0223 = test: M.I.C. in vitro, nutrient agar dilution; settings: 18 h; Table 2; Providentia 0223 (Gram negative); read-out: M.I.C.
Method: as §1, §2, §3, §4

Bord. bronchis. 4.617 = test: M.I.C. in vitro, nutrient agar dilution; settings: 18 h; Table 2; Bord. bronchis. 4.617 (Gram negative); read-out: M.I.C.
Method: as §1, §2, §3, §4

Strepto A 561 = test: M.I.C. in vitro, nutrient agar dilution; settings: 18 h; Table 2; Strepto A 561 (Gram positive)
Method: as §1, §2, §3, §4

Salm. typhi 0901 = test: microbe, parasite or virus in culture; settings: Salmonella enterica, 18 h; Table 2; Salm. typhi 0901 (Gram negative)
Method: as §1, §2, §3, §4

[1] = Table 2, Sh. sonnei I.P.S. (Gram negative), read-out: M.I.C.

| Compound | MIC (Ps. aeruginosa A.22) | MIC (Esch. coli 54.127 O.M.S.) | MIC (B. subtilis) | MIC (Pr. morganii A.236) | MIC (Strepto D.M. 19) | MIC (Arizona 6.211) | MIC (Klebs. pneum. 10.031) | MIC (Pr. mirabilis Nig) | MIC (S. enteritidis Danysz) | MIC (S. oranienburg 1066) | MIC (Serratia) | MIC (Esch. coli 95 I.S.M.) | MIC (Esch. coli 111 B4) | MIC (Ps. aeruginosa 72.345) | MIC (Pr. vulgaris 12-53) | MIC (Staph. 9.144) | MIC (Staph. 209 P) | MIC (Providentia 0223) | MIC (Bord. bronchis. 4.617) | MIC (Strepto A 561) | other results |
| --- | --- | --- | --- | --- | --- | --- | --- | --- | --- | --- | --- | --- | --- | --- | --- | --- | --- | --- | --- | --- | --- |
| CCn1cc(C(=O)O)c(=O)c2cc(Cl)c(N3CCN(C)CC3)cc21 [Example 1, 6-Chloro-1-ethyl-7-(4-methylpiperazinyl)-4-oxo-1,4-dihydro-quinoline-3-carboxylic acid] | 3.1 to 6.2 µg/mL (≈ 8.86 to 17.7 µM) | 0.2 to 0.4 µg/mL (≈ 0.572 to 1.14 µM) | 0.2 to 0.4 µg/mL (≈ 0.572 to 1.14 µM) | 0.2 to 0.8 µg/mL (≈ 0.572 to 2.29 µM) | 1.6 to 3.1 µg/mL (≈ 4.57 to 8.86 µM) | 0.2 to 0.8 µg/mL (≈ 0.572 to 2.29 µM) | 0.2 µg/mL (≈ 0.572 µM) | 0.4 to 0.8 µg/mL (≈ 1.14 to 2.29 µM) | 0.4 to 1.6 µg/mL (≈ 1.14 to 4.57 µM) | 12.5 to 25 µg/mL (≈ 35.7 to 71.5 µM) | 1.6 to 3.1 µg/mL (≈ 4.57 to 8.86 µM) | 0.4 to 0.8 µg/mL (≈ 1.14 to 2.29 µM) | 0.2 to 0.4 µg/mL (≈ 0.572 to 1.14 µM) | 3.1 to 6.2 µg/mL (≈ 8.86 to 17.7 µM) | 0.4 to 1.6 µg/mL (≈ 1.14 to 4.57 µM) | 0.4 to 1.6 µg/mL (≈ 1.14 to 4.57 µM) | 0.4 µg/mL (≈ 1.14 µM) | 3.1 to 12.5 µg/mL (≈ 8.86 to 35.7 µM) | 1.6 to 6.2 µg/mL (≈ 4.57 to 17.7 µM) | 12.5 to 50 µg/mL (≈ 35.7 to 143 µM) | MIC (Sh. sonnei I.P.S.): 0.2 to 0.85 µg/mL (≈ 0.572 to 2.43 µM); MIC (Salm. typhi 0901): 0.4 to 1.6 µg/mL (≈ 1.14 to 4.57 µM) |
| CCn1cc(C(=O)O)c(=O)c2cc(Cl)c(N3CCNCC3)cc21 [Example 3, 6-Chloro-1-ethyl-4-oxo-7-piperazinyl-1,4-dihydro-quinoline-3-carboxylic acid] | 1.6 to 3.1 µg/mL (≈ 4.76 to 9.23 µM) | 0.2 µg/mL (≈ 0.596 µM) | 0.2 to 0.4 µg/mL (≈ 0.596 to 1.19 µM) | 0.2 µg/mL (≈ 0.596 µM) | 1.6 to 3.1 µg/mL (≈ 4.76 to 9.23 µM) | 0.2 µg/mL (≈ 0.596 µM) | 0.2 µg/mL (≈ 0.596 µM) | 0.2 µg/mL (≈ 0.596 µM) | 0.2 µg/mL (≈ 0.596 µM) | 6.2 to 12.5 µg/mL (≈ 18.5 to 37.2 µM) | 3.1 to 12.5 µg/mL (≈ 9.23 to 37.2 µM) | 0.2 µg/mL (≈ 0.596 µM) | 0.2 µg/mL (≈ 0.596 µM) | 1.6 to 3.1 µg/mL (≈ 4.76 to 9.23 µM) | 0.2 µg/mL (≈ 0.596 µM) | 0.4 µg/mL (≈ 1.19 µM) | 0.4 to 0.8 µg/mL (≈ 1.19 to 2.38 µM) | 1.6 to 3.1 µg/mL (≈ 4.76 to 9.23 µM) | 0.2 to 12.5 µg/mL (≈ 0.596 to 37.2 µM) | 6.2 µg/mL (≈ 18.5 µM) | MIC (Sh. sonnei I.P.S.; [1]): 0.2 µg/mL (≈ 0.596 µM); MIC (Salm. typhi 0901): 0.2 µg/mL (≈ 0.596 µM) |
| CCn1cc(C(=O)O)c(=O)c2cc(Cl)c(N3CCN(CCO)CC3)cc21 [Example 4, 6-chloro-1-ethyl-7-[4-(β-hydroxyethyl)-piperazinyl]-4-oxo-1,4-dihydro-quinoline-3-carboxylic acid] | 12.5 µg/mL (≈ 32.9 µM) | 3.1 µg/mL (≈ 8.16 µM) | 6.2 µg/mL (≈ 16.3 µM) | 1.6 µg/mL (≈ 4.21 µM) | 6.2 µg/mL (≈ 16.3 µM) | 1.6 µg/mL (≈ 4.21 µM) | 0.4 µg/mL (≈ 1.05 µM) | 3.1 µg/mL (≈ 8.16 µM) | 3.1 µg/mL (≈ 8.16 µM) | 25 µg/mL (≈ 65.8 µM) | 25 µg/mL (≈ 65.8 µM) | 1.6 µg/mL (≈ 4.21 µM) | 3.1 µg/mL (≈ 8.16 µM) | 12.5 µg/mL (≈ 32.9 µM) | 1.6 µg/mL (≈ 4.21 µM) | 0.4 µg/mL (≈ 1.05 µM) | 0.4 µg/mL (≈ 1.05 µM) | 25 µg/mL (≈ 65.8 µM) | 6.2 µg/mL (≈ 16.3 µM) | 6.2 µg/mL (≈ 16.3 µM) | MIC (Sh. sonnei I.P.S.; [1]): 0.8 µg/mL (≈ 2.11 µM); MIC (Salm. typhi 0901): 3.1 µg/mL (≈ 8.16 µM) |
